Source: the NIST ThermoML archive (doi:10.1016/j.jct.2014.07.018)
Numbers after ± are expanded uncertainties.

Experiment: Molar enthalpy of transition or fusion
Conditions: Adiabatic calorimetry

| SMILES | Molar enthalpy of transition or fusion (Crystal) | Molar enthalpy of transition or fusion (Crystal 2) |
| --- | --- | --- |
| CCCCn1cc[n+](C)c1.[I-] [1-butyl-3-methylimidazolium iodide] | 4.539 ± 0.0191 kcal/mol | – |
| CCC[n+]1ccn(C)c1.[Br-] [1-methyl-3-propylimidazolium bromide] | – | 4.567 ± 0.0335 kcal/mol |
